Data published in patent US20230381142A1, “ANTILEISHMANIAL COMPOUNDS, COMPOSITIONS AND USE THEREOF” (TRUSTEES OF BOSTON UNIVERSITY, priority 2022, published 2023).
Like-named read-outs stand apart in the source and are kept apart here.

Key:
[1] = UCSD infection assay, host cell cytotoxicity (CC50); type: cell-based; conditions: mouse, B10R host cells infected with L. donovani
Protocol: (§1) Assay Conditions D: B10R cells (CVCL_0155) were seeded at 300 cells/well, and L. donovani WT promastigotes in stationary phase (7th day after passage) were added at 6,000 parasites/well (ratio of 20 parasites/cell). Both cells and parasites were seeded in DMEM High-Glucose medium (Gibco, cat. no. 11995065) containing 5% Fetal Bovine Serum (Sigma-Aldrich, cat. no. F2442) and 1% Penicillin-Streptomycin (Gibco, cat. no. 15140122). Cells and parasites were incubated in the presence of the compounds for 72 h at 37° C. and 5% C02. Plates were then fixed with 4% formaldehyde solution for at least 1 h, then washed with 1×PBS and stained with 5 μg/mL DAPI. Plates were read using an ImageXpress microscope (Molecular Devices) and analyzed by MetaXpress software (Molecular Devices) using a custom module optimized for this assay. […] Compounds were tested in a 10-point 2-fold serial dilution in 3 technical replicates, and 2 biological replicates. After 72 h, plates were fixed and stained with DAPI as described above. Images were acquired on an ImageXpress microscope, and analyzed using the MetaXpress custom module.
as §1, with “Compounds were obtained as 0.2 μmoles of dried film for primary single point screening. Each compound was diluted in DMSO to 10 μM final testing concentration. These compounds were tested in 2 biological replicates. The compounds were pre-spotted onto 384-well assay plates in single concentration.” for “Assay Conditions D:”, “CO2.” for “C02.”, “module. The DRCs were plotted, half-effective concentration (EC50) and half-cytotoxic concentration (CC50) were calculated using GraphPad Prism Software, version 6.05 (GraphPad Software, San Diego, CA).” for “module.”

[2] = tested on: L. donovani intracellular amastigotes in B10R cells; test: UCSD L. donovani infection assay (Assay Conditions D); type: cell-based; conditions: B10R cells; for L. donovani amastigotes EC75 (B10R cells): footnote d; for EC50: Leishmania donovani, values marked d, read-out: L. donovani amastigotes EC50 (B10R cells)
How it was run: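 B10R cells (300/well) infected with stationary-phase L. donovani WT promastigotes at 20 parasites/cell in DMEM high-glucose, 5% FBS, with compounds 72 h at 37° C., 5% CO2. Formaldehyde-fixed, DAPI-stained, imaged by high-content microscopy; 10-point 2-fold dilutions (screen at 10 μM) gave EC50 and host CC50.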

[3] = tested on: L. braziliensis (strain BA788) in J774 cells; test: J774 luciferase infection assay (Assay Conditions E); type: cell-based, Leishmania braziliensis; conditions: for L. braziliensis amastigotes EC75 (J774 cells): footnote e
Protocol: Assay Conditions E: J774 cells (ATCC J774A.1 were grown in DMEM supplemented with 10% Fetal Bovine Serum (FBS) and 1% Penicillin-Streptomycin at 37° C. in 5% CO2. Leishmania parasites expressing luciferase and GFP were grown as described in Front. Cell. Infect. Microbiol (2019) 9:237. J774 cells were seeded in microwell plates at 3×10^5 cells/mL density. Cells were washed with PBS and incubated with complete DMEM medium containing stationary phase Leishmania promastigotes (L. major: strain Friedlin; L. braziliensis, strain BA788) at a 1:10 parasite-cell ratio for 24 h. Cells were washed with PBS. Cells and compounds were incubated for 48 h at 37° C. and 5% C02. Compounds were tested in 8-point 2-fold serial dilution in 4 technical replicates, and 2 biological replicates. After 48 h, OneTiterGlo (Promega) (100 μl) was added to each well. Plates were incubated for 15 min and bioluminescence was measured using a plate reader (Molecular Devices). Effective concentration inducing 75% activity (EC75) was calculated using GraphPad Prism Software (version 9.0).

[4] = tested on: L. donovani intracellular amastigotes infecting THP-1 macrophages; test: GSK intramacrophage L. donovani assay (LD AMMAC, inMac; Assay Conditions C); type: cell-based; conditions: Leishmania donovani
How it was run: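 L. donovani amastigotes within THP-1 macrophages; EC50 based on average intracellular amastigotes per infected cell (AMMAC). Infected-cell percentage (INFCELL) and host-cell number (MAC) also read, the latter as toxicity output.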

[5] = GSK inMac assay, host cell toxicity readout (LD MAC); type: cell-based, human; conditions: human
How it was run: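 Intramacrophage L. donovani assay in THP-1 macrophages; host toxicity taken from host cell number per well, giving MAC EC50. Run alongside amastigote-per-cell and infected-cell readouts in the same wells.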

[6] = THP-1 cells, values marked c, read-out: L. donovani amastigotes EC50 (THP-1 cells)
[7] = footnote c, read-out: THP-1 Host Cell CC50
[8] = values marked c: THP-1 cells, read-out: L. donovani amastigotes EC50 (μM, THP-1 or B10R cells)

Cc1cc(N2C(=O)c3[nH]nc(CC(C)C)c3C2c2ccccc2Cl)ccn1 (stereo not shown) [BUCMD00639]
CC50 at 72 h ([1]; footnote d): 20 µM | L. donovani amastigotes EC75 (B10R cells) [2]: 0.4 µM | L. braziliensis amastigotes EC75 (J774 cells) [3]: >10 µM

CC(C)Cc1n[nH]c2c1C(c1ccc(Br)cc1F)N(c1ccc(F)nc1)C2=O (stereo not shown) [BUCMD00649]
L. donovani amastigotes EC75 (μM, B10R cells) [2]: >10 µM | L. braziliensis amastigotes EC75 (μM, J774 cells) [3]: >10 µM

CC(C)Cc1n[nH]c2c1C(c1ccc(F)cc1Br)N(c1ccc(F)nc1)C2=O (stereo not shown) [BUCMD00650]
L. donovani amastigotes EC75 (μM, B10R cells) [2]: >10 µM | L. braziliensis amastigotes EC75 (μM, J774 cells) [3]: 9.0 µM

Cc1ccccc1C1c2c(CC(C)C)n[nH]c2C(=O)N1c1ccc(F)nc1 (stereo not shown) [BUCMD00651]
L. donovani amastigotes EC75 (μM, B10R cells) [2]: 6.3 µM | L. braziliensis amastigotes EC75 (μM, J774 cells) [3]: >10 µM

Cc1cc(F)ccc1C1c2c(CC(C)C)n[nH]c2C(=O)N1c1cnn(C(C)C)c1 (stereo not shown) [BUCMD00673]
L. donovani amastigotes EC75 (μM, B10R cells) [2]: >10 µM | L. braziliensis amastigotes EC75 (μM, J774 cells) [3]: >10 µM

COc1ccc(N2C(=O)c3[nH]nc(CC(C)C)c3C2c2ccc(F)cc2Cl)cn1 (stereo not shown) [BUCMD00684]
L. donovani amastigotes EC75 (μM, B10R cells) [2]: >10 µM | L. braziliensis amastigotes EC75 (μM, J774 cells) [3]: 10.0 µM

COc1ccc(N2C(=O)c3[nH]nc(CC(C)C)c3C2c2ccc(Cl)cc2F)cn1 (stereo not shown) [BUCMD00685]
L. donovani amastigotes EC75 (μM, B10R cells) [2]: 1.7 µM | L. braziliensis amastigotes EC75 (μM, J774 cells) [3]: >10 µM

COc1ccc(N2C(=O)c3[nH]nc(CC(C)C)c3C2c2ccccc2C)cn1 (stereo not shown) [BUCMD00687]
L. donovani amastigotes EC75 (μM, B10R cells) [2]: >10 µM | L. braziliensis amastigotes EC75 (μM, J774 cells) [3]: >10 µM

COc1ccc(N2C(=O)c3[nH]nc(CC(C)C)c3C2c2ccc(F)cc2F)cn1 (stereo not shown) [BUCMD00688]
L. donovani amastigotes EC75 (μM, B10R cells) [2]: 3.3 µM | L. braziliensis amastigotes EC75 (μM, J774 cells) [3]: >10 µM

COc1ccc(N2C(=O)c3[nH]nc(CC(C)C)c3C2c2ccccc2C(F)(F)F)cn1 (stereo not shown) [BUCMD00689]
L. donovani amastigotes EC75 (μM, B10R cells) [2]: >10 µM | L. braziliensis amastigotes EC75 (μM, J774 cells) [3]: >10 µM

COc1ccc(N2C(=O)c3[nH]nc(CC(C)C)c3C2c2sccc2C)cn1 (stereo not shown) [BUCMD00690]
L. donovani amastigotes EC75 (μM, B10R cells) [2]: 9.7 µM | L. braziliensis amastigotes EC75 (μM, J774 cells) [3]: >10 µM

COc1ccc(N2C(=O)c3[nH]nc(CC(C)C)c3C2c2ccccc2F)cn1 (stereo not shown) [BUCMD00691]
L. donovani amastigotes EC75 (μM, B10R cells) [2]: 4.9 µM | L. braziliensis amastigotes EC75 (μM, J774 cells) [3]: >10 µM

COc1ccc(N2C(=O)c3[nH]nc(CC(C)C)c3C2c2ccc(F)c(F)c2)cn1 (stereo not shown) [BUCMD00692]
L. donovani amastigotes EC75 (μM, B10R cells) [2]: >10 µM | L. braziliensis amastigotes EC75 (μM, J774 cells) [3]: >10 µM

CC(C)Cc1n[nH]c2c1C(c1ccc(F)cc1Cl)N(c1cncc(F)c1)C2=O (stereo not shown) [BUCMD00694]
CC50 at 72 h ([1]; footnote d): 10 µM | L. donovani amastigotes EC75 (B10R cells) [2]: 0.4 µM | L. braziliensis amastigotes EC75 (J774 cells) [3]: >10 µM

C#CCCOc1ccc(C2c3c(CC(C)C)n[nH]c3C(=O)N2c2ccc(OC)cc2)c(Cl)c1 (stereo not shown) [BUCMD00728]
L. donovani amastigotes EC75 (μM, B10R cells) [2]: >10 µM | L. braziliensis amastigotes EC75 (μM, J774 cells) [3]: >10 µM

COc1ncc(N2C(=O)c3[nH]nc(CC(C)C)c3C2c2ccc(F)cc2C)cc1F (stereo not shown) [BUCMD00729]
CC50 at 72 h ([1]; footnote d): 6.31 µM | L. donovani amastigotes EC75 (B10R cells) [2]: 0.4 µM | L. braziliensis amastigotes EC75 (J774 cells) [3]: 2.0 µM

C#CCCCCOc1ccc(C2c3c(CC(C)C)n[nH]c3C(=O)N2c2ccc(OC)nc2)c(Cl)c1 (stereo not shown) [BUCMD00738]
CC50 at 72 h ([1]; host B10R cells): 7.94 µM | L. donovani amastigotes EC75 (μM, B10R cells) [2]: >10 µM | L. braziliensis amastigotes EC75 (μM, J774 cells) [3]: >10 µM

COc1ccc(N2C(=O)c3[nH]nc(CC(C)C)c3C2c2ccc(F)cn2)cc1 (stereo not shown) [CMLD011100]
EC50 [4, 6]: 10 µM | L. donovani amastigotes EC75 (B10R cells) [2]: 4.4 µM | CC50 [5, 7]: > 50 µM | L. braziliensis amastigotes EC75 (J774 cells) [3]: >10 µM

CC(C)Cc1n[nH]c2c1C(c1ccc(F)cc1)N(c1ccc3c(c1)OCCO3)C2=O (stereo not shown) [CMLD011101]
CC50 at 72 h ([1]; footnote d): 15.8 µM | EC50 [4, 6]: 3.2 µM | L. donovani amastigotes EC75 (B10R cells) [2]: 1.2 µM | CC50 [5, 7]: 25.1 µM

COc1ccc(N2C(=O)c3[nH]nc(CC(C)C)c3C2c2ccc(C)s2)cc1 (stereo not shown) [CMLD011123]
CC50 at 72 h ([1]; host B10R cells): 15.8 µM | EC50 [4, 8]: 5 µM | L. donovani amastigotes EC75 (μM, B10R cells) [2]: 2.5 µM | CC50 ([5]; host THP-1 cells): 20 µM

CC(C)Cc1n[nH]c2c1C(c1cccc(C(F)(F)F)c1)N(c1ccc3c(c1)OCO3)C2=O (stereo not shown) [CMLD011139]
CC50 at 72 h ([1]; host B10R cells): 12.6 µM | EC50 [4, 8]: 3.2 µM | L. donovani amastigotes EC75 (μM, B10R cells) [2]: >10 µM | CC50 ([5]; host THP-1 cells): 20 µM

CC(C)Cc1n[nH]c2c1C(c1ccccc1Br)N(c1ccc3c(c1)OCC(=O)N3)C2=O (stereo not shown) [CMLD011497]
CC50 at 72 h ([1]; host B10R cells): 6.31 µM | EC50 [4, 8]: 2 µM | L. donovani amastigotes EC75 (μM, B10R cells) [2]: 0.9 µM | CC50 ([5]; host THP-1 cells): 20 µM

COc1ccccc1C1c2c(CC(C)C)n[nH]c2C(=O)N1c1ccc(N(C)C)cc1 (stereo not shown) [CMLD011552]
CC50 at 72 h ([1]; footnote d): 3.98 µM | L. donovani amastigotes EC75 (B10R cells) [2]: 0.1 µM | EC50 [2]: 0.1 µM | CC50 [5, 7]: 3.5 µM | L. braziliensis amastigotes EC75 (J774 cells) [3]: >10 µM

CC(C)Cc1n[nH]c2c1C(c1c(Cl)cccc1Cl)N(c1ccc(N(C)C)cc1)C2=O (stereo not shown) [CMLD011553]
CC50 at 72 h ([1]; host B10R cells): 5.01 µM | EC50 [4, 8]: 4 µM | L. donovani amastigotes EC75 (μM, B10R cells) [2]: 3.0 µM | CC50 ([5]; host THP-1 cells): 20 µM

Cc1cc(F)ccc1C1c2c(CC(C)C)n[nH]c2C(=O)N1c1ccc(Br)cc1 (stereo not shown) [CMLD011565]
CC50 at 72 h ([1]; footnote d): 3.98 µM | L. donovani amastigotes EC75 (B10R cells) [2]: 0.1 µM | EC50 [2]: 0.1 µM | CC50 [5, 7]: 3 µM | L. braziliensis amastigotes EC75 (J774 cells) [3]: 5.0 µM

COc1ccc(N2C(=O)c3[nH]nc(CC(C)C)c3[C@H]2c2ccc(F)cc2)cc1 [CMLD013629]
CC50 at 72 h ([1]; host B10R cells): 20 µM | EC50 [4, 8]: 10 µM | L. donovani amastigotes EC75 (μM, B10R cells) [2]: >10 µM | CC50 ([5]; host THP-1 cells): 25.1 µM
